Non-standard residues stand in square brackets, D forms with d. Residues, ends and D or L forms follow the SMILES beside them. Oic = O=C(O)[C@@H]1C[C@@H]2CCCC[C@@H]2N1; d2Nal = N[C@H](Cc1ccc2ccccc2c1)C(=O)O; Hyp = O=C(O)[C@@H]1C[C@@H](O)CN1; dTic = O=C(O)[C@H]1Cc2ccccc2CN1; 2Thi = N[C@@H](Cc1cccs1)C(=O)O
Experiments:
human B1 receptor = molecular target: T1, human B1 receptor (Homo sapiens, UniProt P46663); experiment: cell-based; conditions: Human umbilical vein B1 receptor pA2, vs desArg9BK, HOE140 400 nmol/L present
T1 sequence (P46663 1-353): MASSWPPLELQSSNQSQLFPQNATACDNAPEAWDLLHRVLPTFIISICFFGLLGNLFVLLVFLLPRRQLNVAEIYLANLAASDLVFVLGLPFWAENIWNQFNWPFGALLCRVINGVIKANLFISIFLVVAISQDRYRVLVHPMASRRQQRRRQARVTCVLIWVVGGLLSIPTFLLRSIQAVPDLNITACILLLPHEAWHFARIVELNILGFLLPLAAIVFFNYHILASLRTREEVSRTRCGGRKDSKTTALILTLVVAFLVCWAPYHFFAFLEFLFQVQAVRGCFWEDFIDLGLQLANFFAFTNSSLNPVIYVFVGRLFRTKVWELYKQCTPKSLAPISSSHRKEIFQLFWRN
Source text: (§1) Tissues were taken from New Zealand white rabbits (1.5–2.5 kg) and Dunken Hartley guinea pigs (250–350 g) of either sex, killed by stunning and exsanguination. Umbilical cords were taken from healthy women 22–40 years old after spontaneous delivery at term. The rabbit jugular vein (RbJV), the guinea pig ileum (GPI), two preparations containing B2 receptors, the rabbit aorta (RbA) (B1 receptor) and the human umbilical vein (HUV), a mixed preparation containing both B1 and B2 receptors^10, were used. Helical strips of RbJV treated with 1 μmol/L of captopril to avoid peptide degradation by the angiotensin-converting enzyme (ACE), alias kininase II were prepared according to Gaudreau et al.^11 Helical strips of RbA devoid of endothelium were prepared according to Furchgott and Bhadrakom^12. Longitudinal segments of GPI were prepared with the procedure described by Rang^13. Helical strips of HUV were prepared according to Gobeil et al.^10. The tissues were suspended in 10-ml organ baths containing warm (37EC), oxygenated (95% O2–5% CO2) Krebs solution of the following composition in mmol/L; NaCl: 118.1; KCl: 4.7; CaCl26H2O: 2.5; KH2PO4: 1.2; MgSO47H2O: 1.18; NaHCO3: 25.0 and D-Glucose: 5.5. The RbA and the HUV were stretched with an initial tension of 2 g, whereas the RbJV and the GPI were loaded with 0.5 g. Changes of tension produced by the various agents were measured with Grass isometric transducers (model FT 03C, Grass Instrument Co., Quincy, Mass.). […] Before testing the drugs, the tissues were allowed to equilibrate for 60–120 min during which time the tissues were repeatedly washed and the tension readjusted every 15 min.
(§2) At the beginning of each experiment, a submaximal dose of bradykinin (BK) (9 nmol/L), was applied repeatedly on the RbJV, the GPI or the HUV to ensure that tissues responded with stable contractions. […] A similar protocol was used for the HUV.
(§3) Repeated applications of a singl and double concentration of BK (on RbJV, GPI and HUV) and of desArg^9BK (RbA and HUV) were made in the absence and in presence of the various peptides to evaluate their apparent affinities as antagonists, in terms of pA2 (-log10 of the molar concentration of antagonist that reduces the effect of a double concentration of agonist to that of a single one)^14. The antagonists were applied 10 min before measuring the myotropic effects of either BK (the B2 receptor agonist) or desArg^9BK (the B1 receptor agonist). […] All kinin antagonists were initially applied to tissues at concentration of 10 μg/mL to measure their potential agonistic activities (α^E) in comparison with BK (in the B2 receptor preparations) or desArg^9BK (in the B1 receptor preparations).

B2 receptor [1] = molecular target: T2, B2 receptor (Oryctolagus cuniculus, UniProt Q28642); conditions: vs BK; captopril 1 μmol/L; Inactive = no detectable antagonistic effect at ≦ 10 μg/ml
T2 sequence (Q28642 1-367): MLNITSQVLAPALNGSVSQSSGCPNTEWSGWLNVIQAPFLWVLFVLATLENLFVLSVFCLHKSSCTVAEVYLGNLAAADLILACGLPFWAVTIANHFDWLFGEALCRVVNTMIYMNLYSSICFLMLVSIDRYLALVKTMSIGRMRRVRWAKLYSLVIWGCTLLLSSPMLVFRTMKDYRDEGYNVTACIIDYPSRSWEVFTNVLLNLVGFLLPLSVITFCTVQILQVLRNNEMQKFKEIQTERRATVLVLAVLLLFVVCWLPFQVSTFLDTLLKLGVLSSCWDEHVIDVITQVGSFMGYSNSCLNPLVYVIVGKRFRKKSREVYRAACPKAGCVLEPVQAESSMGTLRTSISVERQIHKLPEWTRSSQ

B2 receptor [2] = molecular target: T3, B2 receptor (Cavia porcellus, UniProt O70526); experiment: cell-based; conditions: for G.P.I. pA2: vs BK, Inactive = no detectable antagonistic effect at ≦ 10 μg/ml, F.ag. full agonist, P.ag. partial agonist
T3 sequence (O70526 1-372): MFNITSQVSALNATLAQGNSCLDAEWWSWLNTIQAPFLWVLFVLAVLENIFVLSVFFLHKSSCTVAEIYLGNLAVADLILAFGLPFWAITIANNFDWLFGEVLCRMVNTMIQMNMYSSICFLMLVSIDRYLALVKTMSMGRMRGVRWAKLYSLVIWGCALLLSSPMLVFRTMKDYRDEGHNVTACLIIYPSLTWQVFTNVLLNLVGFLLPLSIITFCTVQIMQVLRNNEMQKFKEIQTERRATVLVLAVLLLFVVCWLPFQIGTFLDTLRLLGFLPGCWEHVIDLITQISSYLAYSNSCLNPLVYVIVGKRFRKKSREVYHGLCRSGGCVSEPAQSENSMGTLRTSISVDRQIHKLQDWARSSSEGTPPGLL
Source text: as §1, §2, §3

B1 receptor = molecular target: T4, B1 receptor (Oryctolagus cuniculus, UniProt P48748); experiment: cell-based; conditions: Rb.A. pA2, apparent affinity as antagonist vs desArg9BK; antagonist applied 10 min before; Inactive = no detectable antagonistic effect at ≦ 10 μg/ml
T4 sequence (P48748 1-352): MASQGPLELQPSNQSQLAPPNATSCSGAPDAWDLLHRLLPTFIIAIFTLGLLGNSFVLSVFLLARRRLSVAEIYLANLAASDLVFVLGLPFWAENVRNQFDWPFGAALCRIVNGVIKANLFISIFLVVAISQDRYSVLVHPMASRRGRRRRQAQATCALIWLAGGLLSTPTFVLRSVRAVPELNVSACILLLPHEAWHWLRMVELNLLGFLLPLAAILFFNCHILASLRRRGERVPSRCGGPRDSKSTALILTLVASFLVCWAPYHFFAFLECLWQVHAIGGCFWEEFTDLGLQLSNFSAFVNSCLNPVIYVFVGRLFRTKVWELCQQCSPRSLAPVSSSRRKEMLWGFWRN
Source text: as §1, §2, §3

[3] = system: T5, angiotensin-converting enzyme (ACE); experiment: Metabolic degradation by purified angiotensin-converting enzyme, HPLC analysis; type: in vitro ADME, rabbit; conditions: rabbit, isolated enzyme ace, pH 7.5
T5 construct: purified angiotensin-converting enzyme (ACE) from rabbit lungs; purchased Sigma, St-Louis, Mo; host or cells: purified from rabbit lungs
Procedure: The metabolic stability of various kinin-related peptides was evaluated by incubating the peptide in the presence of purified angiotensin-converting enzyme (ACE) from rabbit lungs (purchased from Sigma, St-Louis, Mo.) dissolved in phosphate buffered saline (PBS) (50 mmol/L, pH 7.5 containing 300 mmoL/L NaCl); the final concentration of enzyme was 45 μg/mL. The experimental protocol for the measurement of ACE activity has been described elsewhere^15,16. Briefly, 200 μmol/L of peptides (40 μL) were placed in a PBS buffer and incubated for 5 min at 37EC before adding 8.5 μL of ACE (total volume of the reaction medium; 190 μL). Samples were withdrawn at 30 min intervals, immersed in boiling water for 5 min, then cooled on ice and centrifuged (5 min) before proceeding to analysis of peptides by high pressure liquid chromatography (HPLC). Results of ACE metabolism are expressed in percent of kinin degradation following the incubation (30 min) of kinin substrates with the enzyme.
Pure peptides and metabolic products were analysed by reverse-phas HPLC on a C18 μBondapak column (4.6 mm×25 cm) (Waters) of 10-μm particle size. The peptides and their fragments were eluted at the rate of 2.0 mL/min. with a linear gradient ranging from 5 to 65% of acetonitrile/TFA 0.05%/water over 20 min. at room temperature. The elution positions of these peptides were determined by following the absorbance at 214 nm. For each assay, 50 μL of the reaction medium (treated or not with ACE) were extracted and injected into the column. Concentrations of the peaks products, different from the peaks of the peptide substrate, were estimated using a computer software program (Baseline 810; Waters) that controlled also all the chromatography operations. Isolated metabolites and substrates were collected and identified by Electrospray mass spectrometry (positive mode).

B2 receptor [4] = molecular target: T2, B2 receptor; experiment: cell-based
Source text: as §1, §2, §3

| Structure (SMILES) | Kb (human B1 receptor) [nM] | Rb.J.V. pA2 (B2 receptor [1]) | G.P.I. pA2 (B2 receptor [2]) | Kb (B1 receptor) [nM] | metabolised at 0.5 h, 42.1 μmol/L [3] [%] | Kb (B2 receptor [2]) [nM] | Kb (B2 receptor [4]) [nM] | metabolised at 0.5 h [3] [%] |
| --- | --- | --- | --- | --- | --- | --- | --- | --- |
| CC[C@H](C)[C@H](NC(=O)[C@@H](Cc1ccc2ccccc2c1)NC(=O)[C@H](CO)NC(=O)[C@H](Cc1ccccc1)NC(=O)CNC(=O)[C@@H]1CCCN1C(=O)[C@@H]1CCCN1C(=O)[C@H](CCCN=C(N)N)NC(=O)[C@H](CCCCN)NC(C)=O)C(=O)O [AcLys(D-βNal^7, Ile^8)desArg^9BK] (Ac-KRPPGFS[d2Nal]I-OH) | 3.24 |  |  |  |  |  |  |  |
| CC(C)C[C@H](NC(=O)[C@@H]1CCCN1C(=O)[C@H](CO)NC(=O)[C@H](Cc1ccccc1)NC(=O)CNC(=O)[C@@H]1CCCN1C(=O)[C@@H]1CCCN1C(=O)[C@@H](N)CCCNC(=N)N)C(=O)O [Compound 1, (Leu^8)desArg^9BK, reference compound] |  | Inactive | Inactive | 57.5 | 83 ± 2 |  |  |  |
| CC(C)C[C@H](NC(=O)[C@@H]1CCCN1C(=O)[C@H](CO)NC(=O)[C@H](Cc1ccccc1)NC(=O)CNC(=O)[C@@H]1CCCN1C(=O)[C@@H]1CCCN1C(=O)[C@H](CCCNC(=N)N)NC(=O)[C@@H](N)CCCCN)C(=O)O [Compound 2, Lys(Leu^8)desArg^9BK, reference compound] |  | Inactive | Inactive |  | 74 ± 2 |  |  |  |
| N=C(N)NCCC[C@@H](N)C(=O)N[C@@H](CCCNC(=N)N)C(=O)N1CCC[C@H]1C(=O)N1C[C@H](O)C[C@H]1C(=O)NCC(=O)N[C@@H](Cc1ccccc1)C(=O)N[C@@H](CO)C(=O)N[C@H](Cc1ccccc1)C(=O)N[C@@H](Cc1ccccc1)C(=O)O [Compound 6, D-Arg(Hyp^3, D-Phe^7)desArg^9BK] (H-[dR]RP[Hyp]GFS[dF]F-OH; N-terminus and C-terminus assumed) |  |  |  | 363 |  | > 8910 | 2340 |  |
| CC(C)C[C@H](NC(=O)[C@@H](Cc1ccccc1)NC(=O)[C@H](CO)NC(=O)[C@H](Cc1ccccc1)NC(=O)CNC(=O)[C@@H]1C[C@@H](O)CN1C(=O)[C@@H]1CCCN1C(=O)[C@H](CCCNC(=N)N)NC(=O)[C@H](N)CCCNC(=N)N)C(=O)O [Compound 7, D-Arg(Hyp^3, D-Phe^7, Leu^8)desArg^9BK] (H-[dR]RP[Hyp]GFS[dF]L-OH; N-terminus and C-terminus assumed) |  |  | Inactive | 275 |  |  | 2090 |  |
| CC(C)C[C@H](NC(=O)[C@H]1Cc2ccccc2CN1C(=O)[C@H](CO)NC(=O)[C@H](Cc1ccccc1)NC(=O)CNC(=O)[C@@H]1CCCN1C(=O)[C@@H]1CCCN1C(=O)[C@H](CCCNC(=N)N)NC(=O)[C@@H](N)CCCCN)C(=O)O [Compound 10, Lys(D-Tic^7, Leu^8)desArg^9BK] (H-KRPPGFS[dTic]L-OH; N-terminus and C-terminus assumed) |  |  |  | 316 |  |  | > 6310 |  |
| C[C@H](NC(=O)[C@H]1Cc2ccccc2CN1C(=O)[C@H](CO)NC(=O)[C@H](Cc1ccccc1)NC(=O)CNC(=O)[C@@H]1CCCN1C(=O)[C@@H]1CCCN1C(=O)[C@H](CCCNC(=N)N)NC(=O)[C@H](N)CCCNC(=N)N)C(=O)O [Compound 15, D-Arg(D-Tic^7, Ala^8)desArg^9BK] (H-[dR]RPPGFS[dTic]A-OH; N-terminus and C-terminus assumed) |  | Inactive |  | > 9550 |  |  |  | 21 ± 1 |
| N=C(N)NCCC[C@@H](N)C(=O)N[C@@H](CCCNC(=N)N)C(=O)N1CCC[C@H]1C(=O)N1C[C@H](O)C[C@H]1C(=O)NCC(=O)N[C@@H](Cc1ccccc1)C(=O)N[C@@H](CO)C(=O)N1Cc2ccccc2C[C@@H]1C(=O)N[C@@H](Cc1ccccc1)C(=O)O [Compound 16, D-Arg(Hyp^3, D-Tic^7)desArg^9BK] (H-[dR]RP[Hyp]GFS[dTic]F-OH; N-terminus and C-terminus assumed) |  |  |  | 186 |  |  | > 2190 | 0 |
| N=C(N)NCCC[C@H](N)C(=O)N1CCC[C@H]1C(=O)N1C[C@H](O)C[C@H]1C(=O)NCC(=O)N[C@@H](Cc1cccs1)C(=O)N[C@@H](CO)C(=O)N1Cc2ccccc2C[C@@H]1C(=O)N1[C@H](C(=O)O)C[C@@H]2CCCC[C@@H]21 [Compound 32, (Hyp^3, Thi^5, D-Tic^7, Oic^8)desArg^9BK, reference compound] (H-RP[Hyp]G[2Thi]S[dTic][Oic]-OH; N-terminus and C-terminus assumed) |  |  |  | 479 |  | > 7590 | 447 | 0 |

— patent US7041785B1, “B1-bradykinin receptor antagonists and use thereof” (Université de Sherbrooke, priority 1996, dated 2006)
